The record followed here is ChEMBL document CHEMBL2203125, “A Potent and Selective Quinoxalinone-Based STK33 Inhibitor Does Not Show Synthetic Lethality in KRAS-Dependent Cells” (ACS Med Chem Lett, 2012).

≈ marks a conversion by molar mass, not a printed value. Calls of active or inactive are those of the source. The rule behind the calls is not given here.

The target of data set [1] is T1, Serine/threonine-protein kinase 33 (Homo sapiens, UniProt Q9BYT3). Description: Inhibition of N-terminal 6His-tagged full length human recombinant STK33 using myelin basic protein as substrate incubated for 15 mins before initiation of kinase reaction measured after 1 hr by ADP-glo assay.
Target sequence in this assay (Q9BYT3 whole entry, the tested form may be a part): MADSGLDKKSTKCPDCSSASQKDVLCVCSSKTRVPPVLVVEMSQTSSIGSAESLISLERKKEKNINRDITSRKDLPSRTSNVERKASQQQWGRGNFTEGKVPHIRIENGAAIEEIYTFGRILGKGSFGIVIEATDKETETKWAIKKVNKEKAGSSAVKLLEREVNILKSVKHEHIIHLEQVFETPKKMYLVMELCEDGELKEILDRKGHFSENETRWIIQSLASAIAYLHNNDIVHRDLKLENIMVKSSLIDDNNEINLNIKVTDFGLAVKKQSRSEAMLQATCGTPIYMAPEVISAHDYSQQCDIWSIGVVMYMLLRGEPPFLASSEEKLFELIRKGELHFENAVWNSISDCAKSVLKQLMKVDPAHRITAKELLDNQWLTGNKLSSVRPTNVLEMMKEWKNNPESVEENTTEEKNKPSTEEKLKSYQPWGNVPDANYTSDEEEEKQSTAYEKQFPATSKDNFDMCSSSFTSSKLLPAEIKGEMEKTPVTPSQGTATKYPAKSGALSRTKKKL
Data set [2] in a line: Inhibition of His-tagged recombinant catalytic fragment of PKA assessed as phosphorylation of fluorescent-labeled peptide 21substrate by caliper capillary electrophoresis.
A short description of data set [3]: Chemical stability of the compound in DMSO solution by LC-MS analysis. The format is physicochemical.
For data set [4], the species on record is Homo sapiens. Description: Selectivity ratio of IC50 for His-tagged recombinant catalytic fragment of PKA to IC50 for N-terminal 6His-tagged full length human recombinant STK33.
For data set [5], the species on record is Homo sapiens. Description: Selectivity ratio of IC50 for N-terminal 6His-tagged full length human recombinant STK33 to IC50 for human Aurora-B.
Data set [6] is filed under the species Homo sapiens. Nature of the data set: Selectivity ratio of IC50 for human Aurora-B to IC50 for N-terminal 6His-tagged full length human recombinant STK33.
Data set [7] deals with Vascular endothelial growth factor receptor 2 (Homo sapiens) (UniProt P35968). The conditions noted are these: 1 uM.
Vascular endothelial growth factor receptor 2 (Homo sapiens), sequence (P35968 whole entry): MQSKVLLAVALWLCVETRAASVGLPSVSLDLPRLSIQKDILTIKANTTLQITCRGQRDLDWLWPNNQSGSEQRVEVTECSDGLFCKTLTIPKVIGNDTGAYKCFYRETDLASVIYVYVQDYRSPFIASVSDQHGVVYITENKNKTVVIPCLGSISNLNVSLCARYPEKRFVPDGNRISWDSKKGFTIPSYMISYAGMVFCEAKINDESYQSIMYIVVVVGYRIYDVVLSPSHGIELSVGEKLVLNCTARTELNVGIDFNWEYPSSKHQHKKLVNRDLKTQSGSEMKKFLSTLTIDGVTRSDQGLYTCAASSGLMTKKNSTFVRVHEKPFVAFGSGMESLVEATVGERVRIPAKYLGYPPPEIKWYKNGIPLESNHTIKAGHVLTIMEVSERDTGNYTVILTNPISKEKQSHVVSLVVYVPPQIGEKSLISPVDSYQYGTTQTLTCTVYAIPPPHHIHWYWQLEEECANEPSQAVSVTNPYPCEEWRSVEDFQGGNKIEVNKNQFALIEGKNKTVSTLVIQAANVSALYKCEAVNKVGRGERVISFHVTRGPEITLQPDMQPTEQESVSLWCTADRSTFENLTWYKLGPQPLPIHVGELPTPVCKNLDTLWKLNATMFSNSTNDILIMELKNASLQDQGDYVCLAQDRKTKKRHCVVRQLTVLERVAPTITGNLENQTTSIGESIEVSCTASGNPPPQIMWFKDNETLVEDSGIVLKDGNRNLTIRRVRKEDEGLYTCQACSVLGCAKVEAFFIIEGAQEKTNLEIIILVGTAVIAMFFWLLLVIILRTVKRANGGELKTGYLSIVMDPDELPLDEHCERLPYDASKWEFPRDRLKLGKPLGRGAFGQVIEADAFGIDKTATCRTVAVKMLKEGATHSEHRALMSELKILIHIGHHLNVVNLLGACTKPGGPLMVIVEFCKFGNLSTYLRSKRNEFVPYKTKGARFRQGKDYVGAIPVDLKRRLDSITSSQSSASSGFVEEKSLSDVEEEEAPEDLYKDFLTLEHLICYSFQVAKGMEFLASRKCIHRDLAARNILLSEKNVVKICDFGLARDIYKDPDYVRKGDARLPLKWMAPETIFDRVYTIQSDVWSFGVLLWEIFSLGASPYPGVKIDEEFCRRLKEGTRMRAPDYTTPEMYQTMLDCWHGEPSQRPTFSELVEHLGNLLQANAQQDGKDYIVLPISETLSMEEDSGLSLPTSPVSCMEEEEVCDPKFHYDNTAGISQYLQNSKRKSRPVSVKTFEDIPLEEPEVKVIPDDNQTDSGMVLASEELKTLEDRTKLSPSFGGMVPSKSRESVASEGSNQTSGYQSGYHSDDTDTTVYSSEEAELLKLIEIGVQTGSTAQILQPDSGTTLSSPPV
Description: Inhibition of human KDR at 1 uM
Data set [8] concerns RPMI-8226. Nature of the data set: Cytotoxicity against human RPMI8226 cells expressing KRAS mutant gene assessed as effect on cell viability up to 10 uM after 72 hrs by CellTiter-Glo luminescent assay. The format is functional, cell-based. (Cellular ATP, detected with luciferase, serves as a proxy for viable cell number.)
The subject of data set [9] is NOMO-1. Nature of the data set: Cytotoxicity against human NOMO1 cells expressing KRAS mutant gene assessed as effect on cell viability up to 10 uM after 72 hrs by CellTiter-Glo luminescent assay. In kind it is functional, cell-based.
Data set [10] relates to SKM-1. Nature of the data set: Cytotoxicity against human SKM1 cells expressing KRAS mutant gene assessed as effect on cell viability up to 10 uM after 72 hrs by CellTiter-Glo luminescent assay. In kind it is functional, cell-based.
Data set [11] relates to Plasma. Description: Plasma protein binding in mouse at 5 uM after 5 hrs by equilibrium dialysis method. In kind it is ADME, cell-free.
Data set [12] concerns MOLM16. Description: Cytotoxicity against human MOLM16 cells expressing wild type KRAS assessed as effect on cell viability up to 10 uM after 72 hrs by CellTiter-Glo luminescent assay. In kind it is functional, cell-based.
For data set [13], the system named is EOL1. Description: Cytotoxicity against human EOL-1 cells expressing wild type KRAS assessed as effect on cell viability up to 10 uM after 72 hrs by CellTiter-Glo luminescent assay. In kind it is functional, cell-based.
Data set [14] addresses Receptor-type tyrosine-protein kinase FLT3 (Homo sapiens) (UniProt P36888). The conditions noted are these: 1 uM.
Description: Inhibition of human FLT3 at 1 uM
In data set [15] the test system is OCI-AML-3. Nature of the data set: Cytotoxicity against human OCI-AML3 cells expressing wild type KRAS assessed as effect on cell viability up to 10 uM after 72 hrs by CellTiter-Glo luminescent assay. In kind it is functional, cell-based.
Data set [16] deals with PL21. Description: Cytotoxicity against human PL21 cells expressing wild type KRAS assessed as effect on cell viability up to 10 uM after 72 hrs by CellTiter-Glo luminescent assay. In kind it is functional, cell-based.
A short description of data set [17]: Solubility of the compound in PBS at pH 7.4. The format is physicochemical. The conditions noted are these: buffer.
The subject of data set [18] is THP-1. Description: Cytotoxicity against human THP1 cells expressing wild type KRAS assessed as effect on cell viability up to 10 uM after 72 hrs by CellTiter-Glo luminescent assay. The format is functional, cell-based.
Data set [19] deals with MDA-MB-231. Description: Cytotoxicity against human MDA-MB-231 cells expressing KRAS mutant gene assessed as effect on cell viability up to 10 uM after 72 hrs by CellTiter-Glo luminescent assay. In kind it is functional, cell-based.
In data set [20] the target is T1, Serine/threonine-protein kinase 33. The note with it: 1 uM.
Target sequence in this assay (Q9BYT3 whole entry, looked up, the tested form may be a part): as the sequence (Q9BYT3 whole entry, the tested form may be a part) above
Description: Inhibition of N-terminal 6His-tagged full length human recombinant STK33 using myelin basic protein as substrate at 1 uM incubated for 15 mins before initiation of kinase reaction measured after 1 hr by ADP-glo assay
Data set [21] relates to U-937. Description: Cytotoxicity against human U937 cells expressing wild type KRAS assessed as effect on cell viability up to 10 uM after 72 hrs by CellTiter-Glo luminescent assay. In kind it is functional, cell-based.
The subject of data set [22] is MM1.S. Nature of the data set: Cytotoxicity against human MM1S cells expressing wild type KRAS assessed as effect on cell viability up to 10 uM after 72 hrs by CellTiter-Glo luminescent assay. In kind it is functional, cell-based.
The species named for data set [23] is Homo sapiens. Nature of the data set: Cytotoxicity against human KARPAS620 cells expressing KRAS mutant gene assessed as effect on cell viability up to 10 uM after 72 hrs by CellTiter-Glo luminescent assay. The format is functional, cell-based.
A short description of data set [24]: Metabolic stability in human plasma at 5 uM after 5 hrs by UPLC-MS analysis. In kind it is ADME, cell-free. The note with it: read-out: Stability.
The subject of data set [25] is NB-4. Description: Cytotoxicity against human NB4 cells expressing KRAS mutant gene assessed as effect on cell viability up to 10 uM after 72 hrs by CellTiter-Glo luminescent assay. In kind it is functional, cell-based.
Data set [26] deals with Plasma. Nature of the data set: Plasma protein binding in human at 5 uM after 5 hrs by equilibrium dialysis method. In kind it is ADME, cell-free. (In equilibrium dialysis free small molecules cross a membrane that holds back macromolecules.)
In data set [27] the test system is EJM. Description: Cytotoxicity against human EJM cells expressing wild type KRAS assessed as effect on cell viability up to 10 uM after 72 hrs by CellTiter-Glo luminescent assay. The format is functional, cell-based.
Data set [28] concerns KOPN-8. Nature of the data set: Cytotoxicity against human KOPN8 cells expressing KRAS mutant gene assessed as effect on cell viability up to 10 uM after 72 hrs by CellTiter-Glo luminescent assay. In kind it is functional, cell-based.
Data set [29] deals with GDM-1. Description: Cytotoxicity against human GDM-1 cells expressing wild type KRAS assessed as effect on cell viability up to 10 uM after 72 hrs by CellTiter-Glo luminescent assay. In kind it is functional, cell-based.
Data set [30] can be described thus: Metabolic stability in mouse plasma at 5 uM after 5 hrs by UPLC-MS analysis. In kind it is ADME, cell-free. The conditions noted are these: read-out: Stability.
The subject of data set [31] is Jurkat. Description: Cytotoxicity against human Jurkat cells expressing wild type KRAS assessed as effect on cell viability up to 10 uM after 72 hrs by CellTiter-Glo luminescent assay. The format is functional, cell-based.

Receptor-type tyrosine-protein kinase FLT3 (Homo sapiens), sequence (P36888 whole entry): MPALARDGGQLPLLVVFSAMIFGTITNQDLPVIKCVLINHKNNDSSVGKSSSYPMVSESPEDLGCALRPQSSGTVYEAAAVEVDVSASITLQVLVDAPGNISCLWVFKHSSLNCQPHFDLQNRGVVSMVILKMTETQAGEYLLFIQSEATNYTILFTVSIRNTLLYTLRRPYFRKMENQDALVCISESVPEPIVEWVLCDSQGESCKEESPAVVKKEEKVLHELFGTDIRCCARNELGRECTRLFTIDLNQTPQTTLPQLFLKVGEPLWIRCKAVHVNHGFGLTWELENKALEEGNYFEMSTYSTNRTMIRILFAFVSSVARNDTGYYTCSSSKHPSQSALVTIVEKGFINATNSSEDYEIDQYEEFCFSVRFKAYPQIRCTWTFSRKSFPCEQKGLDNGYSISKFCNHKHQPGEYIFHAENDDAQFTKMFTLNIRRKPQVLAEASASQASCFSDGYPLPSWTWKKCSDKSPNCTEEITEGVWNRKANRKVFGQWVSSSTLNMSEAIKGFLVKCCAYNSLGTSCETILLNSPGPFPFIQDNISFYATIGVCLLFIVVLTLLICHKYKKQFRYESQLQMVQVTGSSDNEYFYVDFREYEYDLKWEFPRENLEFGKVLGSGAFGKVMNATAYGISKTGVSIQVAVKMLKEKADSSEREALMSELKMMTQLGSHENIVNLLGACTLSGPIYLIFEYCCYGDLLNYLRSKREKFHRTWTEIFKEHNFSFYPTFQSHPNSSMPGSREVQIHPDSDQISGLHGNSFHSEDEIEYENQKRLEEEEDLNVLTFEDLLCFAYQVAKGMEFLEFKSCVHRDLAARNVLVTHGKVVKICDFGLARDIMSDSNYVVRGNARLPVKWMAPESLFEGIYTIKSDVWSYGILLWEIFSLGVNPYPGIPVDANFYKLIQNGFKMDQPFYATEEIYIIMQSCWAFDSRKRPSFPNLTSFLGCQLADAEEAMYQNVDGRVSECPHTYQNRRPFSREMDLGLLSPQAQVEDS

As a reminder, the IC50 is the concentration needed to halve the response being measured. In the case of `O=C(Nc1ccccc1-c1nc2ccccc2[nH]c1=O)c1ccc(Cl)s1`, in [1], the IC50 was determined as 380 nM.
The same measure, in the same setting: under `O=C(Nc1ccccc1-c1nc2ccccc2[nH]c1=O)c1nccs1` stands 530 nM.
`COc1ccc(C(=O)Nc2ccccc2-c2nc3ccccc3[nH]c2=O)cc1`: the half-inhibitory concentration (IC50) was 980 nM in data set [1] and > 10 µM in data set [2].
Consider `O=c1[nH]c2ccccc2nc1-c1ccccc1NCc1ccccn1`, for which the IC50 in [1] amounted to 1600 nM.
On to `O=C(Nc1ccccc1-c1nc2ccccc2[nH]c1=O)c1ccc(F)cc1`, for which the IC50 in data set [1] is 150 nM; in data set [2], > 10 µM. Also, the Stability entry in data set [3] is reported as “Unstable”.
Take `O=c1[nH]c2ccccc2nc1-c1ccccc1NCc1ccccc1`: the figures for the half-inhibitory concentration (IC50) in data set [1] and in [2] were > 10000 nM and > 10 µM, respectively.
Taken in the same sequence, the figures for `O=C(Nc1ccc(OC(F)(F)F)cc1-c1nc2ccccc2[nH]c1=O)c1cccs1` were 110 nM and > 10 µM.
Regarding `O=C(Nc1ccccc1-c1nc2ccccc2[nH]c1=O)c1ccccc1`, in [1], the half-inhibitory concentration (IC50) stood at 170 nM.
Same read-out and setting: under `O=C(Nc1ccccc1-c1nc2ccccc2[nH]c1=O)c1ccc(Cl)cc1` stands 300 nM.
As for `O=C(Nc1ccccc1-c1nc2ccccc2[nH]c1=O)c1cccnc1`, the 50% inhibitory concentration (IC50) is 580 nM in [1] and > 10 µM in [2]. Also, in data set [3], the Stability result was “Stable”.
`O=C(Nc1ccc(Cl)cc1-c1nc2ccccc2[nH]c1=O)c1cccs1`: the IC50 is 160 nM in data set [1] and > 10 µM in [2].
For `COc1ccc(NC(=O)c2cccs2)c(-c2nc3ccccc3[nH]c2=O)c1`, the Ratio IC50 in data set [4] amounted to 30. Also, the IC50 was 250 nM in data set [1] and 7.5 µM in [2].
The like results for `O=C(Nc1ccccc1-c1nc2cc(Cl)c(Cl)cc2[nH]c1=O)c1cccs1` were, in that order, 1.1, 4000 nM and 4.8 µM.
Turning to `Cc1cc2nc(-c3ccccc3NC(=O)c3cccs3)c(=O)[nH]c2cc1C`, the figures for the IC50 in [1] and in [2] were 1600 nM and > 10 µM, respectively.
On to `O=c1[nH]c2ccccc2nc1-c1ccccc1NS(=O)(=O)c1cccs1`, for which, in data set [1], the half-maximal inhibitory concentration (IC50) is > 10000 nM.
Turning to `O=C(Nc1ccccc1-c1nc2ccccc2nc1O)c1cccs1`, the IC50 is 280 nM in data set [1] and > 10 µM in [2].
On to `O=C(Nc1ccc(F)cc1-c1nc2ccccc2[nH]c1=O)c1cccs1`, for which the half-maximal inhibitory concentration (IC50) in [1] was 410 nM; in data set [2] it was > 10 µM.
Take `O=c1[nH]c2ccccc2nc1-c1ccccc1NCC1CC1`: the 50% inhibitory concentration (IC50) in data set [1] was > 10000 nM.
Same read-out and setting: with `O=c1[nH]c2ccccc2nc1-c1ccccc1NS(=O)(=O)c1ccccc1` the figure was 7300 nM.
As to `COc1ccc(-n2ncc3ccc(Nc4ccc(N5CCN(C)CC5)c(OC)c4)nc32)cc1`, the Ratio IC50 in data set [5] is 2; in data set [6], 0.4.
As for `O=C(Nc1cc(F)ccc1-c1nc2ccccc2[nH]c1=O)c1cccs1`, the values for the IC50 in data set [1] and in [2] were 78 nM and > 10 µM, respectively.
The like results for `O=C(Nc1ccccc1-c1nc2ccccc2[nH]c1=O)C1CCCCC1` were, in that order, > 10000 nM and > 10 µM.
One may read the inhibition as the relative decrease from the control value, in per cent. Broadly, the solubility is the dissolved amount per volume that the medium holds. Read a high solubility as a readily soluble substance. As for `CC(C)c1ccc(NC(=O)c2cccs2)c(-c2nc3ccccc3[nH]c2=O)c1`, the IC50 in data set [1] was 14 nM; in [2], > 10 µM. The inhibition in [7], in [14] and in data set [20] was > 25% throughout. The result in [8], in data set [9], in data set [10], in data set [12], in data set [13] and in data set [15] was inactive. Also, the result in data set [16], in data set [18], in [19], in data set [21], in data set [22] and in [23] was inactive. Also, the result in [25], in [27], in data set [28], in [29] and in data set [31] was inactive. Moreover, the PPB in data set [11] was found to be 99.9%; in data set [26], 99.6%. Besides, in [17], the solubility turned out to be 5.8 µM (≈ 2.26 µg/mL). The results for the remaining at 5 h, 5 µM in data set [24] and in [30] were 80.3% and 10%, respectively.
`CC(=O)NC[C@@H]1C[C@@H](NS(=O)(=O)c2cccc3cncc(C)c23)CN1`: the Ratio IC50 in data set [4] and in data set [6] was 5 in each case.
In the case of `O=C(Nc1cc(Cl)ccc1-c1nc2ccccc2[nH]c1=O)c1cccs1`, the IC50 in data set [1] was 270 nM; in data set [2], > 10 µM.
Take `O=C(Nc1ccccc1-c1nc2cc(F)c(F)cc2[nH]c1=O)c1cccs1`: the 50% inhibitory concentration (IC50) was 1600 nM in data set [1] and > 10 µM in data set [2].
`O=c1[nH]c2ccccc2nc1-c1ccccc1NCc1cccs1`: the IC50 is > 10000 nM in data set [1] and > 10 µM in data set [2].
For `O=c1[nH]c2ccccc2nc1-c1ccccc1NCc1ccc(F)cc1`, the IC50 in data set [1] was > 10000 nM.
As for `O=C(Nc1ccccc1-c1nc2ccccc2[nH]c1=O)c1ccccn1`, the IC50 in data set [1] is 76 nM; in [2], > 10 µM. Also, the Stability result in data set [3] was “Unstable”.
